# Assay: Stability in rat plasma, urine, feces and 12 tissues (LC–MS/MS validation)
# Type: in vitro ADME
# Conditions: for Stability Freeze-thaw: 4 cycles; for Stability Autosampler: 4 °C for 24 h; for Stability Long-term: -70 °C for two weeks; for Stability Short-term: room temperature for 4 h
# Procedure: Analytical validation data including stability and process efficiency are shown in Supplementary Tables 3 and 4. […] The process efficiency in each biological matrix is generally consistent (Supplementary Table 4). […] For plasma samples, the dilution integrity was evaluated for a 10- and 20-fold dilution of QC samples at 40,000 ng/mL, which was two times higher than ULOQ, with blank matrix. The accuracy for dilution integrity was 105.56% and 102.21%, while precision was 1.03% and 2.39% for tenfold and 20-fold dilution, respectively (n = 3, each).
# Supplementary Table 3. Stability (%) of 175Lu-DOTA-PSMA-GUL in the rat plasma, urine, feces,
# Matrix Concentration Short-term Long-term Freeze-thaw Autosampler
# (ng/mL) (n=4) (n=4) (n=4) (n=4)
# [1] = rat small intestine, 4,000 ng/mL
structure (smiles),measurement,setting,value
"O=C([O-])CN1CCN(CC(=O)[O-])CCN(CC(=O)[O-])C(Cc2ccc(NC(=S)NCCCC[C@H](NC(=O)N[C@@H](CCC(=O)O)C(=O)O)C(=O)O)cc2)CN(CC(=O)[O-])CC1.[Lu+3] (stereo partly drawn) [^175Lu-DOTA-PSMA-GUL, Lutetium labeled-1,4,7,10-tetraazacyclododecane-1,4,7,10-tetraacetic acid (DOTA)-PSMA-GUL]",Stability Freeze-thaw,"rat brain, 400 ng/mL",96.03 ± 3.73%
same,Stability Autosampler,"rat brain, 400 ng/mL",96.57 ± 0.76%
same,Stability Long-term,"rat brain, 400 ng/mL",94.77 ± 3.27%
same,Stability Short-term,"rat brain, 400 ng/mL",92.98 ± 2.86%
same,Stability Freeze-thaw,"rat brain, 4,000 ng/mL",102.05 ± 3.19%
same,Stability Autosampler,"rat brain, 4,000 ng/mL",90.60 ± 1.22%
same,Stability Long-term,"rat brain, 4,000 ng/mL",95.22 ± 2.73%
same,Stability Short-term,"rat brain, 4,000 ng/mL",98.51 ± 2.55%
same,Stability Freeze-thaw,"rat fat, 400 ng/mL",91.54 ± 1.36%
same,Stability Autosampler,"rat fat, 400 ng/mL",95.57 ± 4.47%
same,Stability Long-term,"rat fat, 400 ng/mL",96.21 ± 4.47%
same,Stability Short-term,"rat fat, 400 ng/mL",98.86 ± 3.38%
same,Stability Freeze-thaw,"rat fat, 4,000 ng/mL",99.64 ± 2.85%
same,Stability Autosampler,"rat fat, 4,000 ng/mL",95.05 ± 0.70%
same,Stability Long-term,"rat fat, 4,000 ng/mL",94.41 ± 3.10%
same,Stability Short-term,"rat fat, 4,000 ng/mL",96.74 ± 3.52%
same,Stability Freeze-thaw,"rat feces, 400 ng/mL",104.54 ± 6.86%
same,Stability Autosampler,"rat feces, 400 ng/mL",97.85 ± 3.82%
same,Stability Long-term,"rat feces, 400 ng/mL",103.52 ± 1.25%
same,Stability Short-term,"rat feces, 400 ng/mL",90.69 ± 6.38%
same,Stability Freeze-thaw,"rat feces, 4,000 ng/mL",105.65 ± 2.20%
same,Stability Autosampler,"rat feces, 4,000 ng/mL",104.03 ± 2.53%
same,Stability Long-term,"rat feces, 4,000 ng/mL",101.50 ± 1.39%
same,Stability Short-term,"rat feces, 4,000 ng/mL",104.76 ± 2.40%
same,Stability Autosampler,"rat heart, 400 ng/mL",98.75 ± 4.29%
same,Stability Long-term,"rat heart, 400 ng/mL",93.97 ± 1.45%
same,Stability Short-term,"rat heart, 400 ng/mL",95.08 ± 10.83%
same,Stability Freeze-thaw,"rat heart, 4,000 ng/mL",97.19 ± 8.21%
same,Stability Autosampler,"rat heart, 4,000 ng/mL",92.56 ± 3.26%
same,Stability Long-term,"rat heart, 4,000 ng/mL",93.50 ± 2.78%
same,Stability Short-term,"rat heart, 4,000 ng/mL",91.74 ± 0.93%
same,Stability Freeze-thaw,"rat kidney, 400 ng/mL",94.83 ± 2.49%
same,Stability Autosampler,"rat kidney, 400 ng/mL",95.72 ± 4.19%
same,Stability Long-term,"rat kidney, 400 ng/mL",95.92 ± 2.97%
same,Stability Short-term,"rat kidney, 400 ng/mL",95.45 ± 3.51%
same,Stability Freeze-thaw,"rat kidney, 4,000 ng/mL",94.30 ± 1.02%
same,Stability Autosampler,"rat kidney, 4,000 ng/mL",97.98 ± 2.82%
same,Stability Long-term,"rat kidney, 4,000 ng/mL",94.61 ± 2.50%
same,Stability Short-term,"rat kidney, 4,000 ng/mL",98.14 ± 3.63%
same,Stability Freeze-thaw,"rat liver, 400 ng/mL",95.93 ± 3.91%
same,Stability Autosampler,"rat liver, 400 ng/mL",97.39 ± 3.47%
same,Stability Long-term,"rat liver, 400 ng/mL",97.86 ± 1.87%
same,Stability Short-term,"rat liver, 400 ng/mL",98.94 ± 5.66%
same,Stability Freeze-thaw,"rat liver, 4,000 ng/mL",91.72 ± 2.23%
same,Stability Autosampler,"rat liver, 4,000 ng/mL",92.47 ± 2.32%
same,Stability Long-term,"rat liver, 4,000 ng/mL",91.83 ± 1.56%
same,Stability Short-term,"rat liver, 4,000 ng/mL",91.39 ± 2.47%
same,Stability Freeze-thaw,"rat lung, 400 ng/mL",96.40 ± 1.10%
same,Stability Autosampler,"rat lung, 400 ng/mL",98.84 ± 7.51%
same,Stability Long-term,"rat lung, 400 ng/mL",99.08 ± 2.59%
same,Stability Short-term,"rat lung, 400 ng/mL",98.55 ± 4.32%
same,Stability Freeze-thaw,"rat lung, 4,000 ng/mL",97.55 ± 0.70%
same,Stability Autosampler,"rat lung, 4,000 ng/mL",102.00 ± 4.06%
same,Stability Long-term,"rat lung, 4,000 ng/mL",95.79 ± 1.75%
same,Stability Short-term,"rat lung, 4,000 ng/mL",96.87 ± 1.97%
same,Stability Freeze-thaw,"rat muscle, 400 ng/mL",101.47 ± 2.25%
same,Stability Autosampler,"rat muscle, 400 ng/mL",94.93 ± 2.73%
same,Stability Long-term,"rat muscle, 400 ng/mL",99.56 ± 2.47%
same,Stability Short-term,"rat muscle, 400 ng/mL",100.99 ± 2.76%
same,Stability Freeze-thaw,"rat muscle, 4,000 ng/mL",94.67 ± 0.44%
same,Stability Autosampler,"rat muscle, 4,000 ng/mL",98.62 ± 2.06%
same,Stability Long-term,"rat muscle, 4,000 ng/mL",99.74 ± 4.41%
same,Stability Short-term,"rat muscle, 4,000 ng/mL",99.13 ± 2.50%
same,Stability Freeze-thaw,"rat plasma, 80 ng/mL",102.92 ± 2.77%
same,Stability Autosampler,"rat plasma, 80 ng/mL",97.69 ± 3.09%
same,Stability Long-term,"rat plasma, 80 ng/mL",100.61 ± 2.11%
same,Stability Short-term,"rat plasma, 80 ng/mL",106.18 ± 0.41%
same,Stability Freeze-thaw,"rat plasma, 16,000 ng/mL",98.68 ± 1.21%
same,Stability Autosampler,"rat plasma, 16,000 ng/mL",102.82 ± 1.73%
same,Stability Long-term,"rat plasma, 16,000 ng/mL",99.20 ± 0.51%
same,Stability Short-term,"rat plasma, 16,000 ng/mL",101.14 ± 2.43%
same,Stability Freeze-thaw,"rat prostate, 400 ng/mL",95.17 ± 3.44%
same,Stability Autosampler,"rat prostate, 400 ng/mL",97.82 ± 2.46%
same,Stability Long-term,"rat prostate, 400 ng/mL",95.50 ± 3.57%
same,Stability Short-term,"rat prostate, 400 ng/mL",95.76 ± 1.48%
same,Stability Freeze-thaw,"rat prostate, 4,000 ng/mL",99.85 ± 2.74%
same,Stability Autosampler,"rat prostate, 4,000 ng/mL",96.30 ± 0.83%
same,Stability Long-term,"rat prostate, 4,000 ng/mL",97.12 ± 3.90%
same,Stability Short-term,"rat prostate, 4,000 ng/mL",99.30 ± 3.24%
same,Stability Freeze-thaw,"rat small intestine, 400 ng/mL",99.15 ± 6.00%
same,Stability Autosampler,"rat small intestine, 400 ng/mL",98.68 ± 2.52%
same,Stability Long-term,"rat small intestine, 400 ng/mL",98.80 ± 2.76%
same,Stability Short-term,"rat small intestine, 400 ng/mL",99.17 ± 2.35%
same,Stability Freeze-thaw,[1],100.54 ± 2.33%
same,Stability Autosampler,[1],104.13 ± 2.24%
same,Stability Long-term,[1],103.65 ± 4.10%
same,Stability Short-term,[1],102.12 ± 2.51%
same,Stability Freeze-thaw,"rat spleen, 400 ng/mL",98.46 ± 3.74%
same,Stability Autosampler,"rat spleen, 400 ng/mL",102.59 ± 1.80%
same,Stability Long-term,"rat spleen, 400 ng/mL",97.10 ± 3.45%
same,Stability Short-term,"rat spleen, 400 ng/mL",101.61 ± 2.41%
same,Stability Freeze-thaw,"rat spleen, 4,000 ng/mL",104.53 ± 2.39%
same,Stability Autosampler,"rat spleen, 4,000 ng/mL",102.93 ± 2.02%
same,Stability Long-term,"rat spleen, 4,000 ng/mL",106.40 ± 3.85%
same,Stability Short-term,"rat spleen, 4,000 ng/mL",104.24 ± 4.36%
same,Stability Freeze-thaw,"rat stomach, 400 ng/mL",97.59 ± 1.68%
same,Stability Autosampler,"rat stomach, 400 ng/mL",100.00 ± 4.55%
same,Stability Long-term,"rat stomach, 400 ng/mL",99.72 ± 2.41%
same,Stability Short-term,"rat stomach, 400 ng/mL",98.96 ± 4.28%
same,Stability Freeze-thaw,"rat stomach, 4,000 ng/mL",92.47 ± 1.38%
same,Stability Autosampler,"rat stomach, 4,000 ng/mL",93.61 ± 2.79%
same,Stability Long-term,"rat stomach, 4,000 ng/mL",94.79 ± 3.41%
same,Stability Short-term,"rat stomach, 4,000 ng/mL",96.98 ± 3.91%
same,Stability Freeze-thaw,"rat testis, 400 ng/mL",107.18 ± 0.85%
same,Stability Autosampler,"rat testis, 400 ng/mL",101.68 ± 6.54%
same,Stability Long-term,"rat testis, 400 ng/mL",103.74 ± 3.80%
same,Stability Short-term,"rat testis, 400 ng/mL",100.51 ± 3.98%
same,Stability Freeze-thaw,"rat testis, 4,000 ng/mL",99.52 ± 0.96%
same,Stability Autosampler,"rat testis, 4,000 ng/mL",97.56 ± 4.96%
same,Stability Long-term,"rat testis, 4,000 ng/mL",94.96 ± 4.89%
same,Stability Short-term,"rat testis, 4,000 ng/mL",101.72 ± 1.48%
same,Stability Freeze-thaw,"rat urine, 400 ng/mL",105.67 ± 4.65%
same,Stability Autosampler,"rat urine, 400 ng/mL",94.03 ± 2.84%
same,Stability Long-term,"rat urine, 400 ng/mL",98.36 ± 1.67%
same,Stability Short-term,"rat urine, 400 ng/mL",91.67 ± 2.58%
same,Stability Freeze-thaw,"rat urine, 16,000 ng/mL",92.41 ± 1.12%
same,Stability Autosampler,"rat urine, 16,000 ng/mL",104.69 ± 2.03%
same,Stability Long-term,"rat urine, 16,000 ng/mL",100.28 ± 1.39%
same,Stability Short-term,"rat urine, 16,000 ng/mL",106.46 ± 1.17%
same,stability in each biological matrix,"short-term, long-term, freeze–thaw and autosampler storage conditions",stable
